In series [1] the test system is S6RP serine-240/244 phosphorylation. Put plainly: In vitro phospho-S6 cellular assay. Format: cell-based. To be noted: Homo sapiens; HEK293T/17 cells, 2 hours; read-out: pS6 inhibition value (IC50), activity level. The method, boiled down: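 HEK293T/17 cells (40,000/well for pS6RP, 80,000/well for pAkt) in DMEM, 2% FCS treated 2 h at 37 °C with 8 compound concentrations (0.1% DMSO). Lysates assayed by MesoScale sandwich electrochemiluminescence for pS6RP Ser240/244 or pAkt Ser473. Curves fitted by sigmoidal variable-slope regression.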

Series [2] has as its system Akt serine-473 phosphorylation. Put plainly: In vitro phospho-Akt cellular assay. Format: cell-based. As to conditions: Homo sapiens; HEK293T/17 cells, 2 hours; read-out: pAkt inhibition value (IC50), activity level. An excerpt:
Activation of mTOR signaling results in phosphorylation of several downstream targets. In cells, mTOR exists in two different protein complexes. The mTOR Complex-1 (mTORC1) phosphorylates and activates S6 Kinase 1 (S6K1) and S6 Kinase 2 (S6K2) (also known as p70S6K) which then phosphorylate S6 Ribosomal Protein (S6RP) (also known as RPS6)3. S6RP is phosphorylated on serine 235, serine 236, serine 240 and serine 244 by both pS6K1 and pS6K2. The mTOR Complex-2 (mTORC2) phosphorylates AKT on serine 473 which activates the AKT signaling pathway.
The assay measures a test compound's inhibition of S6RP serine-240/244 phosphorylation and inhibition of Akt serine-473 phosphorylation in human embryonic kidney derived HEK293T/17 cells (ATCC CRL-11268).
The HEK293T/17 cell line is maintained in DMEM media (Invitrogen catalogue number 41965-039) supplemented with 10% FCS at 37° C. in a 5% CO2 humidified incubator.
Cells are seeded in 96-well plates at 40,000 cells/well (pS6RP S240/244 assay) or 80,000 cells/well (pAkt S473 assay) in 90 μl growth media (DMEM, 2% FCS). Plates are incubated for 1 hour in a humidified incubator to allow the cells to adhere. Cells are treated with 8 concentrations of test compounds or DMSO alone for controls (final DMSO concentration 0.1%) and incubated at 37° C. for 2 hours. Then 20 μl of 5× concentrated lysis buffer (750 mM NaCl, 100 mM Tris pH7.4, 5 mM ADTA, 5 mM EGTA, 5% Triton X-100) is added, plates are sealed and incubated for 15 minutes at 4° C. with gentle shaking. After cell lysis, 25 μl cell lysate is transferred to a MesoScale plate coated with an antibody to pS6RP Ser240/244 (MesoScale Discovery K150DGD-3) or an antibody to pAkt Ser 473 (MesoScale Discovery K151DGD-3). Plates have been blocked before by incubation with 150 μl MesoScale Discovery Blocking Solution-A for 1 hour at room temperature followed by washing with 150 μl 1× Tris wash buffer per well. After the transfer of the cell lysate to the MSD plate, the pS6RP (or pAkt) protein is captured on the coated antibody by incubation at room temperature for 1 hour with gentle shaking. After the capture step the plate is washed three times with 150 μl of 1× Tris wash buffer per well. Then 25 μl detection antibody conjugated with a Sulfo-Tag is added and incubated for 1 hour at room temperature with gentle shaking. Subsequently the antibody solution is removed and the plate is washed 3 times with 150 μl 1× Tris wash buffer per well and 150 μl Read buffer is added. The plates are analysed on a MSD 2400 Plate Reader (MesoScale Discovery). Data analysis is performed using nonlinear regression for a sigmoidal dose-response with a variable slope.

The target in another series is mTOR (Homo sapiens, UniProt P42345). Description: biochemical.
For series [3], the target named is DNA-dependent protein kinase (DNA-PK) (Homo sapiens, UniProt P78527). Put plainly: biochemical.
Series [4] is described as follows: Bi-directional Caco-2 permeability assay. Format: in vitro ADME. As to conditions: human, pH 7.4, Caco-2, 10 uM, pH7.4, read-out: Efflux ratio (ER), Papp B>A/Papp A>B. Here is the method: Bi-directional Caco-2 assays to assess the permeability of compounds in the gi tract, were performed as described below.
2×10^5 cells/well were seeded in plating medium consisting of DMEM+GlutaMAXI+1% NEAA+10% FBS (FetalClone II)+1% Pen/Strep. The medium was changed every 2-3 days.
50 uM Lucifer Yellow (Sigma) was added to the donor buffer in all wells to assess integrity of the cell layers by monitoring Lucifer Yellow permeation. As Lucifer Yellow (LY) cannot freely permeate lipophilic barriers, a high degree of LY transport indicates poor integrity of the cell layer. After a 1 hr incubation at 37° C. while shaking at an orbital shaker at 150 rpm, 70 ul aliquots were taken from both apical (A) and basal (B) chambers and added to 100 ul 50:50 acetonitrile:water solution containing analytical internal standard (0.5 uM carbamazepine) in a 96 well plate.
Concentrations of compound in the samples were measured by high performance liquid-chromatography/mass spectroscopy (LC-MS/MS).
The Efflux ratio, as an indication of active efflux from the apical cell surface of Caco-2 cells, was calculated using the ratio of Papp B>A/Papp A>B.
On the technique in general: Caco-2 cells form a polarised layer with tight junctions and transporters.

Series [5] relates to IFNγ release in whole blood. Put plainly: In vitro human whole blood assay (IFNγ release). Format: cell-based. As to conditions: αCD3/αCD28 and IL-2 stimulation, 18 hours, read-out: WB inhibition value (pIC50) (converted). An outline of the steps: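 Na-heparin human whole blood, diluted 1.4-fold in RPMI, was preincubated 1 h at 37° C with 10 compound concentrations (0.2% DMSO), then stimulated with 1 μg/ml αCD3, 1 μg/ml αCD28 and 10 ng/ml IL-2 for 18 h. Plasma IFNγ quantified by MesoScale electrochemiluminescence immunoassay; values from variable-slope sigmoidal dose-response fit.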

Sequence of DNA-dependent protein kinase (DNA-PK) (P78527 whole entry): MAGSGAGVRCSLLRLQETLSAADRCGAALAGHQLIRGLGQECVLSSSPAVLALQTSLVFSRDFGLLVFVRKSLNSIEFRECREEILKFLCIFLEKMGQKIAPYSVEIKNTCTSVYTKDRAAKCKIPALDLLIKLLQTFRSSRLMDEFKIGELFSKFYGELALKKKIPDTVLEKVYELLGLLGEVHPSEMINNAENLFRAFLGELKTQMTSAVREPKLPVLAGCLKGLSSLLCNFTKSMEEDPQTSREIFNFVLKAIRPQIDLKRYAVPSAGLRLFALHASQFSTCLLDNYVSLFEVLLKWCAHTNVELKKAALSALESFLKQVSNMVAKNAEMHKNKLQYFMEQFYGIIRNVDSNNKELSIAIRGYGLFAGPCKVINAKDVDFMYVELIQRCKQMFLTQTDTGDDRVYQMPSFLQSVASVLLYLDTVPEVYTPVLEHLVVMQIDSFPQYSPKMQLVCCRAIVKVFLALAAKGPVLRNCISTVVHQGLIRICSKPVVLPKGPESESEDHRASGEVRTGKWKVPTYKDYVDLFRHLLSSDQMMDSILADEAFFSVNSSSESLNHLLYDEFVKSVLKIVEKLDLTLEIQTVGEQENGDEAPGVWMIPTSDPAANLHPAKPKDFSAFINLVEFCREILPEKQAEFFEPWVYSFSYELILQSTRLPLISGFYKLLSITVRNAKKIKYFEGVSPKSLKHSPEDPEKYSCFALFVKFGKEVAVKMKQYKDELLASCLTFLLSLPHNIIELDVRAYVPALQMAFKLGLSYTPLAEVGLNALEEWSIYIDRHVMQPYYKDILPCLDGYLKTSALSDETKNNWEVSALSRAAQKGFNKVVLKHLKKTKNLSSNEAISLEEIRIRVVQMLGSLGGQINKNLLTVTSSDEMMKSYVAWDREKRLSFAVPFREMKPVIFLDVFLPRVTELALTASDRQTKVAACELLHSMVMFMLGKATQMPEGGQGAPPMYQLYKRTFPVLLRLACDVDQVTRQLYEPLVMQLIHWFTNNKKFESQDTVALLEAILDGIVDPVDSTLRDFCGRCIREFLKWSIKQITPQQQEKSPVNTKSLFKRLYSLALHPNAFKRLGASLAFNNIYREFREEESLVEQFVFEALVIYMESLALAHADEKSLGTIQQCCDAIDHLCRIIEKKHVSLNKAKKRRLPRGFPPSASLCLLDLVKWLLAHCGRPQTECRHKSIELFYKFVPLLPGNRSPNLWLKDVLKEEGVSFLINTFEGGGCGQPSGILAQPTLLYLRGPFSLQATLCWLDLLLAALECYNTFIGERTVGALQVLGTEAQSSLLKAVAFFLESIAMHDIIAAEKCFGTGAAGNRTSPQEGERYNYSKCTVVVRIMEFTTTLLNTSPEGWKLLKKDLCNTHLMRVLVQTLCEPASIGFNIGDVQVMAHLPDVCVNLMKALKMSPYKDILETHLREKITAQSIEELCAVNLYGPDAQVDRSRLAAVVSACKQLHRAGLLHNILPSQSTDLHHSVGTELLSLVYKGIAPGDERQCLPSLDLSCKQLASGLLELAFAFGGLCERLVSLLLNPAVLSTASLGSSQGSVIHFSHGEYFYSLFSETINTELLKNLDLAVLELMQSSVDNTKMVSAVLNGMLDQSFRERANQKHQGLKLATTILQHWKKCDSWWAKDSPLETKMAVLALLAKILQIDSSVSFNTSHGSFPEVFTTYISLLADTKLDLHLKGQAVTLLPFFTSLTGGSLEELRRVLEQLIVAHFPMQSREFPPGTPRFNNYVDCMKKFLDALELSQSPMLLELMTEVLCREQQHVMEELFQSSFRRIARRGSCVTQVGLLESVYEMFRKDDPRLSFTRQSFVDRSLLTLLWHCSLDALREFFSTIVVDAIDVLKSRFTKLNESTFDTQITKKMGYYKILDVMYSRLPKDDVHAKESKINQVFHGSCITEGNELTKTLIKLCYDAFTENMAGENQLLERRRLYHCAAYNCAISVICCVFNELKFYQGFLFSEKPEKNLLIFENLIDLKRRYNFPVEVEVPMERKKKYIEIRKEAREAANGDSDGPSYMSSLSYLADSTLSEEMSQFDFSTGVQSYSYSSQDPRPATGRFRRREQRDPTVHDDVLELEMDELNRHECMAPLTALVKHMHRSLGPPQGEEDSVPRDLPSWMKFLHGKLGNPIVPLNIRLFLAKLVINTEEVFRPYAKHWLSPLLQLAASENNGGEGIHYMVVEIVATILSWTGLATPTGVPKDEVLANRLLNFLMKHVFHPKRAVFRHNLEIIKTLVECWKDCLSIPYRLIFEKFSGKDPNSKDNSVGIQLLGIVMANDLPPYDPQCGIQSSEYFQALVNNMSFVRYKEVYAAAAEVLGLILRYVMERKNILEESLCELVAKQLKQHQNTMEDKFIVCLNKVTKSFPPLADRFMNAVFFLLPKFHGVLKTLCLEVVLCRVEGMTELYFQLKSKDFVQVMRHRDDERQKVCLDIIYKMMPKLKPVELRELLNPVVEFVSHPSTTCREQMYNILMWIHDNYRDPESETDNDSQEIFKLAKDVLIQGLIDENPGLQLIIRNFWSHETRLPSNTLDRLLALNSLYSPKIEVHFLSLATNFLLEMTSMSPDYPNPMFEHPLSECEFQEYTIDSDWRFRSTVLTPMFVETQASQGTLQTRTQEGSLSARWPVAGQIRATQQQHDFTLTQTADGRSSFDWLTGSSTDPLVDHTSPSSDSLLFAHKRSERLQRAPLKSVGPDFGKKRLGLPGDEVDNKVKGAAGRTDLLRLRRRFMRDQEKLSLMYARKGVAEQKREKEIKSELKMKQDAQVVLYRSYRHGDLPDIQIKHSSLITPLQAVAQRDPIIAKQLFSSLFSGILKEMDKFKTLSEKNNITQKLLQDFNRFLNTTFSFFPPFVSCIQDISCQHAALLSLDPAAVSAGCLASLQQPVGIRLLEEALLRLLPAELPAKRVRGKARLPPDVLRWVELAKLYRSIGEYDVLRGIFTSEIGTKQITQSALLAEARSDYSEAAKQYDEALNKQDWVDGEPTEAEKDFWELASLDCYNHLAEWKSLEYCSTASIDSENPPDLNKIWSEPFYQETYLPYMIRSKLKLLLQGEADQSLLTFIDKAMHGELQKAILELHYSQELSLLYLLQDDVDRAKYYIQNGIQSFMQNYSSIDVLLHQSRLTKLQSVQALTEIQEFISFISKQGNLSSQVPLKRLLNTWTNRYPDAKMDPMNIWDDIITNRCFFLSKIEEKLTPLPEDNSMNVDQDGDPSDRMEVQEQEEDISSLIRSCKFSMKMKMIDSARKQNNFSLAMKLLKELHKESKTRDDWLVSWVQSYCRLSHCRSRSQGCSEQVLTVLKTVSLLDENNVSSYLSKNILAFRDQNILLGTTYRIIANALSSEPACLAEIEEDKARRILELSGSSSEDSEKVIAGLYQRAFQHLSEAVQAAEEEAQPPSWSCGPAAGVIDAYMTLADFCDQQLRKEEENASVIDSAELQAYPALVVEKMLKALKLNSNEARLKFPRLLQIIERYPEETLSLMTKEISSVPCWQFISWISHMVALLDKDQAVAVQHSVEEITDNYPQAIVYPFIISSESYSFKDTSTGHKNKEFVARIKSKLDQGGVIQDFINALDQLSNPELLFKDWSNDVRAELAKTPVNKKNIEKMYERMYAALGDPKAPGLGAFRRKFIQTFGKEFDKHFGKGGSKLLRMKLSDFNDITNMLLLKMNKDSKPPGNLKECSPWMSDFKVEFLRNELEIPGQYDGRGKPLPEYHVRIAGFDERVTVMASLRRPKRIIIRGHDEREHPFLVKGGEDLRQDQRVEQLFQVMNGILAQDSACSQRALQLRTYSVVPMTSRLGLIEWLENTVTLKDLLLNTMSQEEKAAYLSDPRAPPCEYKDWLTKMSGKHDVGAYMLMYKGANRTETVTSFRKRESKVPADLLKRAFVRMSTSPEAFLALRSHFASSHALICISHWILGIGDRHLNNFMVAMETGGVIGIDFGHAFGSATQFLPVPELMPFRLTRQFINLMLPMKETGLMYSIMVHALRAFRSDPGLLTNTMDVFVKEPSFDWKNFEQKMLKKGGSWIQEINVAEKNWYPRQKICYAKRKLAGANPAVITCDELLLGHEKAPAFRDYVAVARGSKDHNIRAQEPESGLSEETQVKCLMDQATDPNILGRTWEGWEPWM

As for `C[C@@H]1c2c(nc(-c3ccc(NC(=O)NC4CC4)cc3)nc2N2CCOC[C@@H]2C)CS1(=O)=O` (single isomer, unassigned) [Example 9], the IC50 (in series [1]; in series [2]; against mTOR) was below 100 nM in each case.
`C[C@H]1COCCN1c1nc(-c2ccc(NC(=O)NC3CC3)cc2)nc2c1[C@H](C)S(=O)(=O)C2` (single isomer, unassigned) [Example 10]: the IC50 (in series [1]; in series [2]; against mTOR) was below 100 nM each time.
For the molecule `C[C@H]1COCCN1c1nc(-c2ccc(NC(=O)NC3CC3)cc2)nc2c1CSC2` [Example 1, (S)-1-cyclopropyl-3-(4-(4-(3-methylmorpholino)-5,7-dihydrothieno[3,4-d]pyrimidin-2-yl)phenyl)urea], the IC50 is below 100 nM in series [1], below 100 nM in series [2], below 100 nM at mTOR and above 10000 nM in series [3].
On to `C[C@H]1COCCN1c1nc(-c2ccc(NC(=O)NC3CC3)cc2)nc2c1CS(=O)(=O)C2` [Example 2, (S)-1-cyclopropyl-3-(4-(4-(3-methylmorpholino)-6,6-dioxido-5,7-dihydrothieno[3,4-d]pyrimidin-2-yl)phenyl)urea], for which the IC50 (in series [1]; in series [2]; at mTOR) was below 100 nM each time.
Take `C[C@H]1COCCN1c1nc(-c2ccc(NC(=O)NC3CC3)cc2)nc2c1S(=O)(=O)CC2` [Example 5, (S)-1-cyclopropyl-3-(4-(4-(3-methylmorpholino)-5,5-dioxido-6,7-dihydrothieno[3,2-d]pyrimidin-2-yl)phenyl)urea]: the IC50 is below 100 nM in series [1], below 100 nM in series [2], below 100 nM at mTOR and above 10000 nM in series [3].
In the case of `CCC1COCCN1c1nc(-c2ccc(NC(=O)NC3CC3)cc2)nc2c1CS(=O)(=O)C2` (centres unmarked) [Example 27, 1-cyclopropyl-3-(4-(4-(3-ethylmorpholino)-6,6-dioxido-5,7-dihydrothieno[3,4-d]pyrimidin-2-yl)phenyl)urea], the IC50 was below 100 nM in series [1], below 100 nM against mTOR and above 10000 nM in series [3]. In series [4], the efflux ratio at 1 h, 10 uM is 25.
Consider `CCNC(=O)Nc1ccc(-c2nc(N3CCOC[C@@H]3C)c3c(n2)C(C)(C)S(=O)(=O)C3)cc1` [Example 62, (S)-1-(4-(7,7-dimethyl-4-(3-methylmorpholino)-6,6-dioxido-5,7-dihydrothieno[3,4-d]pyrimidin-2-yl)phenyl)-3-ethylurea], for which the results for the IC50 in series [1], in series [5] and in series [3] were below 100 nM, 200 nM and above 10000 nM, respectively. In series [4], the efflux ratio at 1 h, 10 uM amounted to 22.
As to `CC1c2c(nc(-c3ccc(NC(=O)NC4CC4)cc3)nc2N2CCOC[C@@H]2C)CCS1(=O)=O` (stereo partly drawn) [Example 74, 1-cyclopropyl-3-(4-(5-methyl-4-((S)-3-methylmorpholino)-6,6-dioxido-7,8-dihydro-5H-thiopyrano[4,3-d]pyrimidin-2-yl)phenyl)urea], the IC50 in series [1] is below 100 nM; in series [5] it was 501 nM; on mTOR, below 100 nM; in series [3], above 10000 nM.
